Results from ChEMBL document CHEMBL1201862, “PubChem BioAssay data set” (2004).
Active and inactive are the calls of the source.

How the values were obtained:
[1] = molecular target: Large T antigen (Simian virus 40, UniProt P03070); format: functional, Betapolyomavirus macacae;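 note: Confirmatory-stage PubChem screen for compounds that inhibit SV40 T antigen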
[2] = molecular target: T1, Mannose-6-phosphate isomerase (Homo sapiens, UniProt P34949); assay: MPI enzyme activity inhibition – biochemical, fluorescence intensity, coupled assay, primary screen (AID 1209)
T1 sequence (P34949 whole entry): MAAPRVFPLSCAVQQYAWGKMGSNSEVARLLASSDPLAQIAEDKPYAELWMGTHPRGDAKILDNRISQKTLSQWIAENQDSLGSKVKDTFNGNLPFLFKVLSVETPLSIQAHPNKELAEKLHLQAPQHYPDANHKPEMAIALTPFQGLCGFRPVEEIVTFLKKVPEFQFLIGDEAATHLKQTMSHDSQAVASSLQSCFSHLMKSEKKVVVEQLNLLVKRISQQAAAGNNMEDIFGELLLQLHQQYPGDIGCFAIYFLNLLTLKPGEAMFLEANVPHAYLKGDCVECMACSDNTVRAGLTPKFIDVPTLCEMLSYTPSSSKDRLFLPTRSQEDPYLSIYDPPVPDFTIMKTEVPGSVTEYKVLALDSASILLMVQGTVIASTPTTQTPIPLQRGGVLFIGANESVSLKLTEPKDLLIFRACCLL

[3] = A cytotoxicity screen of small molecule inhibitors of the PhoP region in Salmonella typhi identified in the primary screen. [Related pubchem assays: 1850, 1864, 1985 ]; format: functional
[4] = molecular target: T2, Leucine aminopeptidase (Plasmodium falciparum 3D7, UniProt Q8IL11); assay: P. falciparum M17LAP inhibitors, primary screen, biochemical, fluorogenic H-Leu-NHMec substrate, 1536-well (AID 1619); format: functional
T2 sequence (Q8IL11 whole entry): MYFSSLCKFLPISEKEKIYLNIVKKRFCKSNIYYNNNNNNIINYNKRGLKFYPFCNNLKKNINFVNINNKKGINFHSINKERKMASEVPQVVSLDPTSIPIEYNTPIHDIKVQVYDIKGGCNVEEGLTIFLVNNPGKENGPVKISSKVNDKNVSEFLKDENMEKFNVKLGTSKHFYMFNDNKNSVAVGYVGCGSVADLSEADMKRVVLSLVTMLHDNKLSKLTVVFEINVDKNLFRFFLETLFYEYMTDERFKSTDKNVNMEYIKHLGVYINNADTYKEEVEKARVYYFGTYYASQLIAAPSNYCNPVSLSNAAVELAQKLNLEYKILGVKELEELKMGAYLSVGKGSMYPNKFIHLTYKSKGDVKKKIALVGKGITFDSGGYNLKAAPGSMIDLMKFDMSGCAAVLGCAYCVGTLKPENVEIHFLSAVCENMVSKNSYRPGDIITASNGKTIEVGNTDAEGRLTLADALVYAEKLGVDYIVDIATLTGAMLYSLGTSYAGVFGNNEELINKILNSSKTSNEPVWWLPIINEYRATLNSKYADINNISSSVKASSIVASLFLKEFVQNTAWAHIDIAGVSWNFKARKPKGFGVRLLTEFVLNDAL

[5] = molecular target: T3, Aspartyl aminopeptidase (Plasmodium falciparum 3D7, UniProt Q8I2J3); assay: Counterscreen for inhibitors of M1 and M17 aminopeptidases: QFRET-based biochemical high throughput dose response assay for inhibitors of the Plasmodium falciparum M18 Aspartyl Aminopeptidase (PFM18AAP). [Related PubChem assays: 1619 (Screening assay (M17LAP inhibitors).), 1445 (Screening assay (M1AAP inhibitors).)]
T3 sequence (Q8I2J3 whole entry): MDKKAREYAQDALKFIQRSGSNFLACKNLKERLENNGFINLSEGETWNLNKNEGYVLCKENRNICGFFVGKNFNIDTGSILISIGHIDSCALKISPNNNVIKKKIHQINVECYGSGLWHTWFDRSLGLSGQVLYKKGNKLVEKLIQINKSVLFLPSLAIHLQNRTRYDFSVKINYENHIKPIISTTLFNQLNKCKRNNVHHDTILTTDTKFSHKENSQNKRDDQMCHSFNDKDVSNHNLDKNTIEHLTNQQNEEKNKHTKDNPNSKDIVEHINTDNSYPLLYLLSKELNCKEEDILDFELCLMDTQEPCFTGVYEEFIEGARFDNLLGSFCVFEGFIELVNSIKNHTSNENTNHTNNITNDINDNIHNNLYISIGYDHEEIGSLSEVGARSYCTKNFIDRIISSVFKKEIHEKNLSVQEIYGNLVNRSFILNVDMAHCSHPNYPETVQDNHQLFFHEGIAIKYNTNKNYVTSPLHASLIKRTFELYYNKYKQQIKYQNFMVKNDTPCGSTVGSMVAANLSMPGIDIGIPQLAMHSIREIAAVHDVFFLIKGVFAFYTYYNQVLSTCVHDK

[6] = molecular target: Procathepsin L (Homo sapiens, UniProt P07711); assay: CTSL1 protease inhibition – biochemical, QFRET, 1536-well, counter-screen for M1/M17 aminopeptidase inhibitor project, dose response (AID 2214)
[7] = system: HT-1080; assay: HT1080 cell viability loss – fluorescence readout (AID 620); format: functional, cell-based; settings: Homo sapiens
[8] = molecular target: Sphingosine 1-phosphate receptor 2 (Homo sapiens, UniProt O95136); assay: Dose Response Cell Based Assay for Antagonists of the S1P2 Receptor. [Related pubchem assays: 856, 736 ]; format: functional
[9] = system: BJ; assay: BJ-TERT fibroblast viability loss – cell-based, RAS-independent, luminescence, dose response (AID 1933); format: functional; settings: Homo sapiens
[10] = system: BJ; assay: cells; format: functional, cell-based; settings: Homo sapiens
[11] = microbe, parasite or virus in culture; format: functional; settings: Mycobacterium tuberculosis
[12] = viability of PTEN-deleted HCT116 cells – cell-based, HCT116 PTEN knockout, dose response (AID 1047); format: functional;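 note: HCT116 colon tumor cells with PTEN knocked out; cells exposed to compound for 60 hours before readout; potency for loss of cell viability measured by luminescence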
[13] = molecular target: T4, Calpain-2 catalytic subunit (Sus scrofa, UniProt P43367); assay: m-calpain protease blockers, concentration series – biochemical, fluorogenic peptide substrate, dose response (AID 1420); format: functional
T4 sequence (P43367 whole entry): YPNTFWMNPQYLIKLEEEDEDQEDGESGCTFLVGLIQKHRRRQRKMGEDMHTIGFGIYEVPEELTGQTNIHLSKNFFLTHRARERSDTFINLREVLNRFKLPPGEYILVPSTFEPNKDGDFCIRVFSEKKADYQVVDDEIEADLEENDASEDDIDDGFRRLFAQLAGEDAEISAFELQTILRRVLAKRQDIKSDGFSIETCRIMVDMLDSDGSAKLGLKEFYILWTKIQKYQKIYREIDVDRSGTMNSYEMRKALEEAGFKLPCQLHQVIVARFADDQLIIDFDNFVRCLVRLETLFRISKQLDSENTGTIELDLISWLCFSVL

[14] = viability of HCT116 lacking mutant beta-catenin – cell-based, human colon tumor, dose response (AID 1045); format: functional;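 note: HCT116 colon tumor cells with beta catenin knocked out; cells exposed to compound for 60 hours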
[15] = system: BJ; assay: BJ-TERT-LT-ST fibroblast viability loss – cell-based, RAS-independent, luminescence, dose response (AID 1935); format: functional; settings: Homo sapiens;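 note: BJ fibroblasts immortalized with TERT plus LT and ST oncogenes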
[16] = DRD fibroblast viability loss – cell-based, non-viral oncogenic, luminescence, dose response (AID 1934); format: functional; settings: Homo sapiens
[17] = molecular target: Voltage-dependent T-type calcium channel subunit alpha-1H (Homo sapiens, UniProt O95180); format: functional;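 note: channel activity triggered by adding a high calcium stimulation buffer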
[18] = system: Jurkat; assay: blockers of NF-kB activation in T cells – Jurkat, luciferase reporter, luminescence, B- and T-cell, dose response (AID 489004); format: functional, cell-based; settings: Homo sapiens;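 note: NF-kB luciferase reporter Jurkat cells stimulated with PMA plus ionomycin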
[19] = HEK-293T viability loss, compound-treated – cell-based, uHTS hits, cytotoxicity control for B/T-cell NF-kB inhibitor project, dose response (AID 489019); format: functional;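 note: IC50 reflects cytotoxicity as loss of cell viability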
[20] = system: INS1; assay: INS-1E survival protection against cytokine death – cell-based, luminescence, retest, dose response (AID 449756); format: functional; settings: Rattus norvegicus;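 note: cell death triggered by IL-1 beta plus TNF-alpha plus IFN-gamma mixture; protective hits raise ATP signal compared with cytokine alone wells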
[21] = reduction of Shn3 3'UTR-driven luciferase in osteoblasts – cell-based, Clone20 osteoblasts, firefly luciferase, cherry-picked, dose response (AID 624132); format: functional;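 note: firefly luciferase luminescence from reporter carrying the Shn3 3'UTR in osteoblasts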
[22] = loss of viability in HepG2 cells – cell-based, CellTiter-Glo, cherry-picked, cytotoxicity control for Shn3 inhibitor project, dose response (AID 624134); format: functional
[23] = non-specific 3'UTR reporter inhibition in Clone20-Shn3RL – cell-based, Renilla luciferase, cherry-picked, counter-screen for Shn3 inhibitor project, dose response (AID 624133); format: functional

Procathepsin L, sequence (P07711 whole entry): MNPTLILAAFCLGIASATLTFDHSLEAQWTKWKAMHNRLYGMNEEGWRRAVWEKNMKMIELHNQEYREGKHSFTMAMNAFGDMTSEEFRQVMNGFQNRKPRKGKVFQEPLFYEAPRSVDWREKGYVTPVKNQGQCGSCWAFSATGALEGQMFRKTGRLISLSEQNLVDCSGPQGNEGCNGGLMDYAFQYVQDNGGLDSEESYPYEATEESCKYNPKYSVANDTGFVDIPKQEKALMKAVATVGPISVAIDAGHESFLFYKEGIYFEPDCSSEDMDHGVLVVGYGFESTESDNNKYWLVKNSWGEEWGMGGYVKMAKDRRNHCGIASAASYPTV
Sphingosine 1-phosphate receptor 2, sequence (O95136 whole entry): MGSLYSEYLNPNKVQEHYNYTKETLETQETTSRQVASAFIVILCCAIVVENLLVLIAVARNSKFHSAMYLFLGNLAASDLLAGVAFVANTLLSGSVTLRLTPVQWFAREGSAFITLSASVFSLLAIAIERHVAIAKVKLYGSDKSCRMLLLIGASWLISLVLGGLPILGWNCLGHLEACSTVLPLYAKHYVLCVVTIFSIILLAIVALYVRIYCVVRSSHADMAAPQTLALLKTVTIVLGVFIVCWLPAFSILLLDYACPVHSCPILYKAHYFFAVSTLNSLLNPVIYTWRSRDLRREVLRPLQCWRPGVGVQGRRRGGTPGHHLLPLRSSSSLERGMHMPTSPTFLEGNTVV
Voltage-dependent T-type calcium channel subunit alpha-1H, sequence (O95180 whole entry): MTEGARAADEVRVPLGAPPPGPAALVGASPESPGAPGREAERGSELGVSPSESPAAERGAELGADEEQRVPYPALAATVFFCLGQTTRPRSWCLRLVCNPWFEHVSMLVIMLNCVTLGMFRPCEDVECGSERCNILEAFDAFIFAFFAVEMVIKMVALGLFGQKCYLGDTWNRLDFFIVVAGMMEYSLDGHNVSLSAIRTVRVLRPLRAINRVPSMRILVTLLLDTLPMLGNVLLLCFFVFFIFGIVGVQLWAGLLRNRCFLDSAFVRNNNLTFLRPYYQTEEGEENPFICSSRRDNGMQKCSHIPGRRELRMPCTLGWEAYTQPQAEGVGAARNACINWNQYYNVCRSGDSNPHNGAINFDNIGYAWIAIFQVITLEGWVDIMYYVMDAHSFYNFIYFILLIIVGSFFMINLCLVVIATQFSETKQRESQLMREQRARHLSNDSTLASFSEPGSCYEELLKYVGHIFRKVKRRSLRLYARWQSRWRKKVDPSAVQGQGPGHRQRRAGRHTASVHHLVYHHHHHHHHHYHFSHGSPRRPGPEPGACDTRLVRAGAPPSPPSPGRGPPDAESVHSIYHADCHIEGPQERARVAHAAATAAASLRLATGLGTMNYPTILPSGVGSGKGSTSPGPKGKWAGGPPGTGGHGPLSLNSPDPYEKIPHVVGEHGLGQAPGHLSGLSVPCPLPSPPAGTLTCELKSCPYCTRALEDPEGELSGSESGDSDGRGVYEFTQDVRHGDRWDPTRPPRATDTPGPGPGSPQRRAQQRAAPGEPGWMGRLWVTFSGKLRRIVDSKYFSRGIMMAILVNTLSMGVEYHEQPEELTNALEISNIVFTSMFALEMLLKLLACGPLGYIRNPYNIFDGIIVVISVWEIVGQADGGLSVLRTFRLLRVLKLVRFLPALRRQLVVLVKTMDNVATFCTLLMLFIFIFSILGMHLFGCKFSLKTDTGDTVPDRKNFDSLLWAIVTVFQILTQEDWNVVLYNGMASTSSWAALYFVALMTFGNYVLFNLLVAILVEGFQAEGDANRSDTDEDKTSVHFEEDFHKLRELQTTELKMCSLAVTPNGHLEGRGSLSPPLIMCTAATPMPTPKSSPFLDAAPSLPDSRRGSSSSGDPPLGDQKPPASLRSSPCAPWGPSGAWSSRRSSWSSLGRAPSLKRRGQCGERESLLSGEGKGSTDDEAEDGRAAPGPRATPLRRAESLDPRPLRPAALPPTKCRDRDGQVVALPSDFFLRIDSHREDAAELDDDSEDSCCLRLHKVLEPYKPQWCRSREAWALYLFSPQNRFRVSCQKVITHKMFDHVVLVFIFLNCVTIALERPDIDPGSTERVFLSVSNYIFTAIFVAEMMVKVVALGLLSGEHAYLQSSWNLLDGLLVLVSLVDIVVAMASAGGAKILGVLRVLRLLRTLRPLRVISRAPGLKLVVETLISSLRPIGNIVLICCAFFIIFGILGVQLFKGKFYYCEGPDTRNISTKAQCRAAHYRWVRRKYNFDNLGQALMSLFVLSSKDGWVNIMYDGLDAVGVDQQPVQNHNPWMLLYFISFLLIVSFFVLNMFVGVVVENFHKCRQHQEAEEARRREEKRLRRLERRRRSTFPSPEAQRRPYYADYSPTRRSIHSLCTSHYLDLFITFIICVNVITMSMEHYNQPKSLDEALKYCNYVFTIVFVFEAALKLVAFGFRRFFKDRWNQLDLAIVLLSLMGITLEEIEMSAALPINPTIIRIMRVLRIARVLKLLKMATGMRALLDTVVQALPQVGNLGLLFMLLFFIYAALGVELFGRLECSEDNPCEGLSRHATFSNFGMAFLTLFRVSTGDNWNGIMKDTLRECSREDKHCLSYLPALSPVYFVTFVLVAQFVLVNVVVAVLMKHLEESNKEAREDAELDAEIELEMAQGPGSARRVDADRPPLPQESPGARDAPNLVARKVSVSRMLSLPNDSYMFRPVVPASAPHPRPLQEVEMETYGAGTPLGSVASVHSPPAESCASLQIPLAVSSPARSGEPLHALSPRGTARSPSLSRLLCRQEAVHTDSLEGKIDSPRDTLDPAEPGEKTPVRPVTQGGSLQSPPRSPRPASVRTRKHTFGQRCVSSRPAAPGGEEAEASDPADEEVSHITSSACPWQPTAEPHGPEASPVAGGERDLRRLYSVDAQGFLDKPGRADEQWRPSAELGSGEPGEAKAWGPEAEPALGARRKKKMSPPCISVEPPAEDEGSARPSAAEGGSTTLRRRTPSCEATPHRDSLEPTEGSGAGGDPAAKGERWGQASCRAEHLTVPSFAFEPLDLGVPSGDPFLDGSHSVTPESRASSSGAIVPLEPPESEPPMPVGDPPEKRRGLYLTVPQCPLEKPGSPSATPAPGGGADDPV
Large T antigen, sequence (P03070 whole entry): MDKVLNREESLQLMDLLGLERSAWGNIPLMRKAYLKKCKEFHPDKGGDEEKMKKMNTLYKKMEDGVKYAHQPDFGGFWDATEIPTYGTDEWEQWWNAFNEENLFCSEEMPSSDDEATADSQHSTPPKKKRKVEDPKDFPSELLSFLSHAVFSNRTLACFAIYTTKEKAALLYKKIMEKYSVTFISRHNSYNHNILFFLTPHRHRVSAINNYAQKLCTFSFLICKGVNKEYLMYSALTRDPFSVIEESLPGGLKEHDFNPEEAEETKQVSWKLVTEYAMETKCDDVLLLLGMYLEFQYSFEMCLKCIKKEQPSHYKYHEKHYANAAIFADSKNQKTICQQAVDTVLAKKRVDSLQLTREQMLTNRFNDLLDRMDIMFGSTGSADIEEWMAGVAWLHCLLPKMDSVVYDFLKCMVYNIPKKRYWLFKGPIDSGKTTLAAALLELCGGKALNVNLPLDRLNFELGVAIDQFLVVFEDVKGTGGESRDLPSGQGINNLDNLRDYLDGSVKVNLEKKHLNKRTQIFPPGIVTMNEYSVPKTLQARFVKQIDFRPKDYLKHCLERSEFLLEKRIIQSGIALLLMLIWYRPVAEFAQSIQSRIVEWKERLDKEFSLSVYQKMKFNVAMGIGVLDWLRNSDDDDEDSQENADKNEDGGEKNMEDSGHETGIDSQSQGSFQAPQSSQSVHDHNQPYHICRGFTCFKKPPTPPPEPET

With `COc1ccccc1N1CCN(/N=C/c2ccc(O)c(O)c2)CC1` the IC50 [1] was 15 µM (active) and the IC50 [2] was > 50 µM (not active).

In the case of `O=C(CSc1nnc(-c2cccnc2)n1Cc1ccco1)c1ccc2ccccc2c1`, the EC50 [3] was > 50 µM (active).

In the case of `Cc1cc(N=Nc2ccccc2)c(NCC(O)C(O)C(O)CO)cc1C` (stereo not drawn), the EC50 [3] was > 50 µM (active).

In the case of `Cc1ccc(-n2c(C)cc(C(=O)COC(=O)c3ccc[nH]c3=O)c2C)cc1C`, the IC50 [4] was 1.45 µM (active), the IC50 [5] was > 73.5 µM (not active) and the IC50 [6] was > 59.6 µM (not active).

With `Cn1c(=O)c([N+](=O)[O-])c(Oc2ccccc2)c2ccccc21` the IC50 [2] was > 50 µM (not active).

For `O=C(NC1=NC2CCCCC2N1)c1ccccc1` (stereo not drawn), the EC50 [7] was > 50 µM (not active).

With `N#CC(c1cccc(Cl)c1)c1ccc2c(C(F)(F)F)cc(C(F)(F)F)nc2n1` (stereo not drawn) the IC50 [8] was 0.922 µM (active), the EC50 [9] was 2.77 µM (active) and the EC50 [10] was 3.68 µM (inconclusive). The CC50 [11] was < 0.16 µM (active), the EC50 [12] was 0.235 µM (active) and the IC50 [13] was 6.77 µM (not active). The EC50 [14] was 0.267 µM (active), the EC50 [15] was 6.56 µM (active) and the EC50 [16] was 3.04 µM (active). For the same compound, the EC50 [17] was 3.85 µM (active), the IC50 [18] was 34.5 µM (inactive) and the IC50 [19] was > 80 µM (inactive). The AC50 [20] was 0.881 µM (active), the AC50 [21] was 0.689 µM (active) and the AC50 [22] was 0.805 µM (active). For the same compound, the AC50 [23] was 0.54 µM (active).

With `CC1=C(C)CC(C(=O)Nc2cccc([N+](=O)[O-])c2)C(C(=O)O)C1` (stereo not drawn) the IC50 [4] was 6.42 µM (active), the IC50 [5] was > 73.5 µM (not active) and the IC50 [6] was > 59.6 µM (not active).
